From patent US8338380B2, “Use of the peptide RFMWMR as a therapeutic agent” (priority 2007, dated 2012)

Legend:
[1] = tested on: Tumor Necrosis Factor-α (TNF-α); assay: Th1/Th2 cytokine profiling assay: TNF-α; assay type: cell-based; conditions: Ovalbumin-restimulated spleen cells of immunized Balb/c mice; 10 micrograms per ml; 72 hours
[2] = tested on: Interleukin-5 (IL-5); assay: Th1/Th2 cytokine profiling assay: IL-5; assay type: cell-based; conditions: Ovalbumin-restimulated spleen cells of immunized Balb/c mice; 10 micrograms per ml; 72 hours
[3] = tested on: Primary Human endothelial cells (HUVEC); assay: Endothelial cell migration assay; assay type: cell-based; conditions: 10 micrograms per ml, 22 hours
[4] = tested on: TNF alpha; assay: TNF alpha production assay in LPS-stimulated macrophages (ELISA); assay type: cell-based, human; conditions: PBMC-derived macrophages, 10 micrograms per ml 30 min before lipopolysaccharide 200 ng/ml, overnight
Text: Not stimulated macrophages served as negative background control.

[5] = Cytotoxicity in CEM-SS cells (MTS) of the HIV-1 experiments; conditions: human
[6] = tested on: Pseudomonas aeruginosa; assay: Pseudomonas aeruginosa assay; assay type: cell-based; conditions: peptide 10 micrograms per ml, macroscopic growth, read visually
[7] = tested on: A549 cells; assay: Apoptosis induction assay (Annexin-5); assay type: cell-based, Human; conditions: apoptosis in A549 cells, 10 micrograms per ml, 24 hours
[8] = tested on: RAW 264.7 cells; assay: Phagocytosis assay (Fluorescein-labeled Escherichia coli); assay type: cell-based, Mouse; conditions: 10 micrograms per ml, 30 min preincubation, 60 min ingestion, flow cytometry
[9] = tested on: Interferon-γ (IFN-γ); assay: Th1/Th2 cytokine profiling assay: IFN-γ; assay type: cell-based; conditions: Ovalbumin-restimulated spleen cells of immunized Balb/c mice; 10 micrograms per ml; 72 hours
[10] = tested on: Interleukin-2 (IL-2); assay: Th1/Th2 cytokine profiling assay: IL-2; assay type: cell-based; conditions: Ovalbumin-restimulated spleen cells of immunized Balb/c mice; 10 micrograms per ml; 72 hours
[11] = tested on: HUVEC; assay: Endothelial tube formation assay; assay type: cell-based, Human; conditions: 10 micrograms per ml, 20 hours, average tubule length
Text: Positive control was vehicle only.

[12] = tested on: Human Peripheral Blood Mononuclear Cells (PBMC); assay: T cell proliferation assay (PHA, 3H-thymidine); assay type: cell-based; conditions: 10 micrograms per ml, 3 days, 3H-thymidine incorporation
[13] = tested on: MRSA; assay: Methicillin resistant Staphylococcus aureus (MRSA) assay; assay type: cell-based; conditions: peptide 10 micrograms per ml, macroscopic growth, read visually
[14] = tested on: A549 cells; assay: Propidium iodide cell cycle assay; assay type: cell-based, Human; conditions: 10 micrograms per ml, 24 hours, FACS
[15] = tested on: HCMV strain AD169; assay: HCMV plaque reduction assay in MRC-5 cells; conditions: HCMV AD169 in MRC-5 cells; peptide 10 micrograms per ml; 7-10 days
[16] = tested on: hepatitis B virus (HBV) ayw strain; assay: HBV experimental assay system (secreted HBV DNA, TaqMan PCR); assay type: cell-based; conditions: HepG2-2.2.15 cells; peptide 10 micrograms per ml; six days; HBV DNA in supernatant
Method: HepG2-2.2.15 is a stable cell line containing the hepatitis B virus (HBV) ayw strain genome (ATCC Cat. No. CRL-11997). Antiviral compounds blocking any late step of viral replication such as transcription, translation, pregenome encapsidation, reverse transcription, particle assembly and release can be identified and characterized using this cell line.
HepG2-2.2.15 cells were plated in 96-well microtiter plates. After 16-24 hours the confluent monolayer of HepG2-2.2.15 cells was washed and the medium was replaced with complete medium containing test peptide—10 micrograms per ml—in duplicate. […] Three days later the culture medium was replaced with fresh medium containing the peptide. Six days following the initial administration of the peptide, the cell culture supernatants was collected, treated with pronase and DNAse and then used in a real-time quantitative TaqMan PCR assay. The PCR-amplified HBV DNA was detected in real-time by monitoring increases in fluorescence signals that result from the exonucleolytic degradation of a quenched fluorescence probe molecule that hybridizes to the amplified HBV DNA. For each PCR amplification, a standard curve was simultaneously generated using dilutions of purified HBV DNA. Antiviral activity was calculated from the reduction in HBV DNA levels (% virus control). […]

[17] = Cytotoxicity in MRC-5 cells (CellTiter 96); conditions: human, MRC-5 cells (embryonal lung fibroblasts)
[18] = tested on: A549 cells; assay: Apoptosis prevention assay (C2 ceramide, Annexin-5); assay type: cell-based, Human; conditions: A549 cells pretreated 30 min with 10 micrograms per ml, then C2 ceramide
[19] = Cytotoxicity in HepG2-2.2.15 cells (dye uptake assay); assay type: cell-based; conditions: human, peptide 10 micrograms per ml, read-out: % Cell Viability
[20] = tested on: HIV-1IIIB; assay: HIV-1 antiviral assay (CPE reduction, MTS); assay type: cell-based; conditions: peptide 10 micrograms per ml, 6 days post-infection
[21] = tested on: Interleukin-4 (IL-4); assay: Th1/Th2 cytokine profiling assay: IL-4; assay type: cell-based; conditions: Ovalbumin-restimulated spleen cells of immunized Balb/c mice; 10 micrograms per ml; 72 hours
[22] = tested on: Human Peripheral Blood Mononuclear Cells (PBMC); assay: B cell proliferation assay (SAC plus Interleukin-2, 3H-thymidine); assay type: cell-based; conditions: 10 micrograms per ml, 3 days, 3H-thymidine incorporation
[23] = tested on: Streptococcus pneumoniae; assay: Streptococcus pneumoniae assay; assay type: cell-based; conditions: peptide 10 micrograms per ml, macroscopic growth, read visually

For “Ac-RFMWMR-NH2 [Ac-Arg-Phe-Met-Trp-Met-Arg-NH2]”, the “TNF-a spleen cells; TH1 response (% of control)” value [1] was 118.8 % of control, the “IL-5 spleen cells; TH2 response (% of control)” value [2] was 93.8 % of control and the “% inhibition of migration” value [3] was −15%. For the same substance, the “% of LPS induction” value [4] was 149.8%, the viability at 10 micrograms per ml [5] was 100% and the “% inhibition” value [6] was 0.0%. The “% of induction” value [7] was 1.2%, the “% of control phagocytosis” value [8] was 105.9% and the “INFγ spleen cells; TH1 response (% of control)” value [9] was 218.6 % of control. The “IL-2 spleen cells (% of control)” value [10] was 156.5 % of control, the “% inhibition of tube formation” value [11] was 23% and the “% of PHA induced control” value [12] was 109.1%. For the same substance, the “% inhibition” value [13] was 0.0%, the “Cell cycle analysis G0/G1” value [14] was 59.2 and the “Cell cycle analysis G2/M” value [14] was 8.2. For the same substance, the “Cell cycle analysis S” value [14] was 32.7, the “% plaque reduction” value [15] was 0.0% and the “% inhibition of HBV replication in HEP G2 cells” value [16] was 46.8%. The viability at 144 h [17] was 84%, the “% prevention of ceramide induced apoptosis” value [18] was 0.0% and the viability at 144 h, 10 micrograms per ml [19] was 100%. For the same substance, the “% CPE reduction in HIV-1 infected CEM-SS cells” value [20] was 0.0%, the “IL-4 spleen cells; TH2 response (% of control)” value [21] was 156.2 % of control and the “% of SAC/IL2 induced control” value [22] was 106.3%. The “% inhibition” value [23] was 0.0%.
